# Measured values as given in ChEMBL document CHEMBL5550154, “Novel biaryloxazolidinone derivatives with broad-spectrum antibacterial activity, favorable drug-like profiles and in vivo efficacy against linezolid-resistant Staphylococcusaureus” (Eur J Med Chem, 2024).
# What was measured:
# Staphylococcus aureus [1] = experiment: Antibacterial activity against Staphylococcus aureus ATCC29213 assessed as inhibition of bacterial growth incubated for 16 to 20 hrs by CLSI based broth liquid microdilution method; format: functional; conditions: time 16-20 hrs
# Staphylococcus aureus [2] = experiment: Antibacterial activity against methicillin-resistant Staphylococcus aureus assessed as inhibition of bacterial growth incubated for 16 to 20 hrs by CLSI based broth liquid microdilution method; format: functional; conditions: time 16-20 hrs
# Staphylococcus aureus [3] = experiment: Antibacterial activity against linezolid-resistant Staphylococcus aureus assessed as inhibition of bacterial growth incubated for 16 to 20 hrs by CLSI based broth liquid microdilution method; format: functional; conditions: time 16-20 hrs
# Enterococcus faecalis = experiment: Antibacterial activity against linezolid-resistant Enterococcus faecalis assessed as inhibition of bacterial growth incubated for 16 to 20 hrs by CLSI based broth liquid microdilution method; format: functional; conditions: time 16-20 hrs
# [4] = Microsomal stability in human liver microsomes assessed as elimination half life pretreated with compound upto 60 mins followed by NADPH addition and measured after 60 mins by LC/MS analysis; format: ADME, Microsome; conditions: time < 120 min
# [5] = Microsomal stability in human liver microsomes assessed as intrinsic clearance pretreated with compound upto 60 mins followed by NADPH addition and measured after 60 mins by LC/MS analysis; format: ADME, Microsome; conditions: time < 120 min, read-out: CLH
# [6] = Microsomal stability in monkey liver microsomes assessed as intrinsic clearance pretreated with compound upto 60 mins followed by NADPH addition and measured after 60 mins by LC/MS analysis; format: ADME, Macaca mulatta, Microsome; conditions: rhesus monkey, time < 120 min, read-out: CLH
# [7] = Microsomal stability in dog liver microsomes assessed as intrinsic clearance pretreated with compound upto 60 mins followed by NADPH addition and measured after 60 mins by LC/MS analysis; format: ADME, Canis lupus familiaris, Microsome; conditions: liver microsomes, time < 120 min, read-out: CLH
# [8] = Microsomal stability in rat liver microsomes assessed as intrinsic clearance pretreated with compound upto 60 mins followed by NADPH addition and measured after 60 mins by LC/MS analysis; format: ADME, Microsome; conditions: time < 120 min, read-out: CLH
# [9] = Microsomal stability in mouse liver microsomes assessed as intrinsic clearance pretreated with compound upto 60 mins followed by NADPH addition and measured after 60 mins by LC/MS analysis; format: ADME, Microsome; conditions: time < 120 min, read-out: CLH
# [10] = Microsomal stability in monkey liver microsomes assessed as parent compound remaining pretreated with compound upto 60 mins followed by NADPH addition and measured after 60 mins by LC/MS analysis; format: ADME, Macaca mulatta, Microsome; conditions: rhesus monkey, time < 120 min, read-out: Stability
# [11] = Microsomal stability in rat liver microsomes assessed as parent compound remaining pretreated with compound upto 60 mins followed by NADPH addition and measured after 60 mins by LC/MS analysis; format: ADME, Microsome; conditions: time < 120 min
# [12] = Microsomal stability in mouse liver microsomes assessed as parent compound remaining pretreated with compound upto 60 mins followed by NADPH addition and measured after 60 mins by LC/MS analysis; format: ADME, Microsome; conditions: time < 120 min
# [13] = Stability in rat plasma assessed as parent compound remaining at 37 degreeC measured upto 60 mins by HPLC analysis; format: ADME, cell-free; conditions: read-out: Stability
# [14] = Stability in monkey plasma assessed as parent compound remaining at 25 degreeC measured upto 60 mins by HPLC analysis; format: ADME, cell-free, Macaca mulatta; conditions: rhesus monkey, read-out: Stability
# [15] = Stability in mouse plasma assessed as parent compound remaining at 25 degreeC measured upto 60 mins by HPLC analysis; format: ADME, cell-free
# [16] = Plasma protein binding in human incubated for 6 hrs by LC-MS/MS analysis; format: ADME, cell-free; conditions: read-out: PPB (converted)
# [17] = Plasma protein binding in monkey incubated for 6 hrs by LC-MS/MS analysis; format: ADME, cell-free, Macaca mulatta; conditions: rhesus monkey, read-out: PPB (converted)
# [18] = Plasma protein binding in dog incubated for 6 hrs by LC-MS/MS analysis; format: ADME, cell-free, Canis lupus familiaris; conditions: read-out: PPB (converted)
# [19] = Plasma protein binding in rat incubated for 6 hrs by LC-MS/MS analysis; format: ADME, cell-free; conditions: read-out: PPB (converted)
# [20] = Aqueous solubility of compound at pH 2 by LC-MS/MS analysis; format: physicochemical; conditions: buffer
# [21] = Aqueous solubility of compound at pH 7.4 by LC-MS/MS analysis; format: physicochemical; conditions: buffer
# [22] = AUC (0 to t) in Sprague-Dawley rat at 1 mg/kg, iv measured upto 24 hrs by LC-MS analysis; format: ADME, organism-based; conditions: in vivo
# [23] = Apparent volume of distribution in Sprague-Dawley rat at 1 mg/kg, iv measured upto 24 hrs by LC-MS analysis; format: ADME, organism-based; conditions: in vivo, read-out: Vz
# [24] = Elimination half life in Sprague-Dawley rat at 10 mg/kg, IG measured upto 24 hrs by LC-MS analysis; format: ADME, organism-based; conditions: in vivo, po, read-out: beta t1/2 (converted)
# [25] = Tmax in Sprague-Dawley rat at 10 mg/kg, IG measured upto 24 hrs by LC-MS analysis; format: ADME, organism-based; conditions: in vivo, po
# [26] = Cmax in Sprague-Dawley rat at 10 mg/kg, IG measured upto 24 hrs by LC-MS analysis; format: ADME, organism-based; conditions: in vivo, po
# [27] = AUC (0 to t) in Sprague-Dawley rat at 10 mg/kg, IG measured upto 24 hrs by LC-MS analysis; format: ADME, organism-based; conditions: in vivo, po
# [28] = Bioavailability in Sprague-Dawley rat at 10 mg/kg, IG measured upto 24 hrs by LC-MS analysis; format: ADME, organism-based; conditions: in vivo, po
# [29] = Half life in ICR mouse at 1 mg/kg, iv measured upto 24 hrs by LC-MS analysis; format: ADME, organism-based; conditions: in vivo
# [30] = AUC (0 to t) in ICR mouse at 1 mg/kg, iv measured upto 24 hrs by LC-MS analysis; format: ADME, organism-based; conditions: in vivo
# [31] = Clearance in ICR mouse at 1 mg/kg, iv measured upto 24 hrs by LC-MS analysis; format: ADME, organism-based; conditions: in vivo
# [32] = Volume of distribution at steady state in ICR mouse at 1 mg/kg, iv measured upto 24 hrs by LC-MS analysis; format: ADME, organism-based; conditions: in vivo, read-out: Vdss
# [33] = Half life in ICR mouse at 10 mg/kg, IG measured upto 24 hrs by LC-MS analysis; format: ADME, organism-based; conditions: in vivo, po
# [34] = Tmax in ICR mouse at 10 mg/kg, IG measured upto 24 hrs by LC-MS analysis; format: ADME, organism-based; conditions: in vivo, po
# [35] = Cmax in ICR mouse at 10 mg/kg, IG measured upto 24 hrs by LC-MS analysis; format: ADME, organism-based; conditions: in vivo, po
# [36] = AUC (0 to t) in ICR mouse at 10 mg/kg, IG measured upto 24 hrs by LC-MS analysis; format: ADME, organism-based; conditions: in vivo, po
# [37] = Cytotoxicity against human HepG2 cells incubated for 48 hrs by MTT assay; format: toxicity, cell-based
# Cytochrome P450 2C9 = Cytochrome P450 2C9 (Homo sapiens, UniProt P11712); experiment: Inhibition of CYP2C9 in human liver microsomes using […] preincubated with compound for 5 mins followed by substrate addition and measured after 120 mins in presence of NADPH by LC-MS/MS analysis; format: ADME, Microsome
# Cytochrome P450 2C19 = Cytochrome P450 2C19 (Homo sapiens, UniProt P33261); experiment: Inhibition of CYP2C19 in human liver microsomes […] preincubated with compound for 5 mins followed by substrate addition and measured after 120 mins in presence of NADPH by LC-MS/MS analysis; format: ADME, Microsome
# Cytochrome P450 2D6 = Cytochrome P450 2D6 (Homo sapiens, UniProt P10635); experiment: Inhibition of CYP2D6 in human liver microsomes […] preincubated with compound for 5 mins followed by substrate addition and measured after 120 mins in presence of NADPH by LC-MS/MS analysis; format: ADME, Microsome
# [38] = liver microsomes, read-out: Stability
# Cytochrome P450 2C9, sequence (P11712 whole entry): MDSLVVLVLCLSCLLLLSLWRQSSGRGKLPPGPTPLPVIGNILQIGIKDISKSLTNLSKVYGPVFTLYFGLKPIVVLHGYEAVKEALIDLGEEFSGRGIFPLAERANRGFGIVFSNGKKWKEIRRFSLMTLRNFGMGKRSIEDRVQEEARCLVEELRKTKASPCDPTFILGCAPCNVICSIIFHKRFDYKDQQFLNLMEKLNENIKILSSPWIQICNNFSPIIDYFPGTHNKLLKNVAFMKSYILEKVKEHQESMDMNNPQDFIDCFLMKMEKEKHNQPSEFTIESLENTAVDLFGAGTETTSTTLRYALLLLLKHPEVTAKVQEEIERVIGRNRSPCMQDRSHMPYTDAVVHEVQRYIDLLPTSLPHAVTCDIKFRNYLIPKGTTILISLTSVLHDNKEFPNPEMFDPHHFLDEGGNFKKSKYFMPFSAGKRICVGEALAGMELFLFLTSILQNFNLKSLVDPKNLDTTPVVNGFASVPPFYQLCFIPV
# Cytochrome P450 2C19, sequence (P33261 whole entry): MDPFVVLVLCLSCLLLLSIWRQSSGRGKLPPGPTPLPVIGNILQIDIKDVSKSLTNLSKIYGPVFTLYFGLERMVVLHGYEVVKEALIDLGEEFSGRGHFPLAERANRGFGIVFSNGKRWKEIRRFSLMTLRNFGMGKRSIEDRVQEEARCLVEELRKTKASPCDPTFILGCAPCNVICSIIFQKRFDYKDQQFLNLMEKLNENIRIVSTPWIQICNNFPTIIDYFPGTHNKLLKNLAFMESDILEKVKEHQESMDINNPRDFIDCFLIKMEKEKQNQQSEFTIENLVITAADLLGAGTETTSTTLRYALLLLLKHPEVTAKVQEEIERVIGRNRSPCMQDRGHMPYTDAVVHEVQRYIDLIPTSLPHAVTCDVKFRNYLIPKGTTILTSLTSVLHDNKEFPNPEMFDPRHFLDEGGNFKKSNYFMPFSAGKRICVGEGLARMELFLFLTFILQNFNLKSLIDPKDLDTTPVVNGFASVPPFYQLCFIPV
# Cytochrome P450 2D6, sequence (P10635 whole entry): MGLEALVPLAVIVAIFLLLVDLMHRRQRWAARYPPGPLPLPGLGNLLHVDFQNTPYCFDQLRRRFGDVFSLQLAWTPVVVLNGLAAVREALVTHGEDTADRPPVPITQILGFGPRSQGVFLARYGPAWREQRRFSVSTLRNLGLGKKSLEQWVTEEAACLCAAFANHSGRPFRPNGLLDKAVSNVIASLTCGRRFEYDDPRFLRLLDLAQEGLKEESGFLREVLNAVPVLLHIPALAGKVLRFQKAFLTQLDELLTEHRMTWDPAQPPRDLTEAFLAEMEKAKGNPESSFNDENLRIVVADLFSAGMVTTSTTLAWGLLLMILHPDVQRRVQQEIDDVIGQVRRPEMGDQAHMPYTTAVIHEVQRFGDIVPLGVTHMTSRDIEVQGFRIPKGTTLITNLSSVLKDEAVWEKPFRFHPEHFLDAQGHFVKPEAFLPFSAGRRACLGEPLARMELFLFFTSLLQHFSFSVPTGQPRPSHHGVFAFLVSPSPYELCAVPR
smiles,measurement,setting,value
CC(C)N/N=C/c1ccc(-c2ccc(N3C[C@H](CO)OC3=O)cc2F)cn1,MIC,Staphylococcus aureus [1],0.06 µg/mL
same,MIC,Staphylococcus aureus [2],0.03 µg/mL
same,MIC,Staphylococcus aureus [3],0.03 µg/mL
same,MIC,Enterococcus faecalis,1 µg/mL
same,half-life,"[4]; liver microsomes, read-out: beta t1/2",281 min
same,microsomal CLint,[5],5.78 µL/min/mg
same,microsomal CLint,[6],13.7 µL/min/mg
same,microsomal CLint,[7],8.78 µL/min/mg
same,microsomal CLint,[8],12.6 µL/min/mg
same,microsomal CLint,[9],18.4 µL/min/mg
same,remaining at 2 h,[10],66%
same,Stability,"[11]; microsomes, 2 h",70.2%
same,Stability,"[12]; microsomes, 2 h",57.9%
same,remaining at 1 h,[13],102%
same,remaining at 1 h,[14],108%
same,remaining at 1 h,[15]; read-out: Stability,113%
same,fraction unbound at 6 h,[16],0.074
same,fraction unbound at 6 h,[17],0.115
same,fraction unbound at 6 h,[18],0.074
same,fraction unbound at 6 h,[19],0.018
same,solubility,[20],56.4 µM
same,solubility,[21],30.2 µM
same,AUC(0-t) at 24 h,[22],1580 ng·h/mL
same,Vd,[23],0.72 L/kg
same,half-life,[24],116 min
same,Tmax,[25],1.17 h
same,Cmax,[26],2480 ng/mL
same,AUC(0-t) at 24 h,[27],10100 ng·h/mL
same,bioavailability,[28],65.8%
same,half-life,[29],20.4 min
same,AUC(0-t) at 24 h,[30],475 ng·h/mL
same,clearance,[31],34.9 mL/min/kg
same,Vd,[32],0.42 L/kg
same,half-life,[33],198 min
same,Tmax,[34],0.25 h
same,Cmax,[35],479 ng/mL
same,AUC(0-t) at 24 h,[36],613 ng·h/mL
same,IC50 at 48 h,[37],> 30 µM
same,IC50,Cytochrome P450 2C9,> 30 µM
same,IC50,Cytochrome P450 2C19,11 µM
same,IC50,Cytochrome P450 2D6,> 30 µM
O=C1O[C@@H](CO)CN1c1ccc(-c2ccc(/C=N/N3CCCCC3)nc2)c(F)c1,MIC,Staphylococcus aureus [1],0.03 µg/mL
same,MIC,Staphylococcus aureus [2],0.03 µg/mL
same,MIC,Staphylococcus aureus [3],0.03 µg/mL
same,MIC,Enterococcus faecalis,0.5 µg/mL
same,beta t1/2,"[4]; microsomes, 2 h",120 min
same,microsomal CLint,[5],11.8 µL/min/mg
same,microsomal CLint,[6],17.2 µL/min/mg
same,microsomal CLint,[7],13.1 µL/min/mg
same,microsomal CLint,[8],14.5 µL/min/mg
same,microsomal CLint,[9],9.37 µL/min/mg
same,remaining at 2 h,[10],59%
same,remaining at 2 h,[11]; [38],63.3%
same,remaining at 2 h,[12]; [38],75.2%
same,remaining at 1 h,[13],104%
same,remaining at 1 h,[14],120%
same,Stability,[15]; 1 h,123%
same,fraction unbound at 6 h,[16],0.013
same,fraction unbound at 6 h,[17],0.028
same,fraction unbound at 6 h,[18],0.017
same,fraction unbound at 6 h,[19],0.006
same,solubility,[20],58.4 µM
same,solubility,[21],9.94 µM
same,AUC(0-t) at 24 h,[22],1400 ng·h/mL
same,Vd,[23],1.06 L/kg
same,half-life,[24],163 min
same,Tmax,[25],1.67 h
same,Cmax,[26],1380 ng/mL
same,AUC(0-t) at 24 h,[27],7170 ng·h/mL
same,bioavailability,[28],51.1%
same,half-life,[29],92.4 min
same,AUC(0-t) at 24 h,[30],1190 ng·h/mL
same,clearance,[31],13.9 mL/min/kg
same,Vd,[32],1.31 L/kg
same,Tmax,[34],2 h
same,Cmax,[35],817 ng/mL
same,AUC(0-t) at 24 h,[36],4740 ng·h/mL
same,IC50 at 48 h,[37],> 30 µM
same,IC50,Cytochrome P450 2C9,5.38 µM
same,IC50,Cytochrome P450 2C19,0.858 µM
same,IC50,Cytochrome P450 2D6,> 30 µM
